Literature values as cited in patent publication US20200330378A1, “TASTE-ENHANCED C[…] EMULSION SYRUP COMPOSITIONS” (ICDPHARMA LTD., priority 2018, published 2020).

Legend:
[1] = patients with insomnia; 160 mg dose of CBD compared to placebo
[2] = 75-300 mg of CBD taken daily
[3] = system: human lung tumors implanted into rats and mice
[4] = subjects given THC

Compound	length of sleep [1]	symptoms of REM sleep behavior disorder [2]	reduction in tumor mass and volume ([3]; human lung tumors implanted into rats and mice)	reduction of cancerous lesions in the lungs ([3]; rats and mice)	amount of time to fall asleep [4]
C=C(C)[C@@H]1CCC(C)=C[C@H]1c1c(O)cc(CCCCC)cc1O [CBD, cannabidiol]	increased	reduce or eliminate entirely			
CCCCCc1cc(O)c2c(c1)OC(C)(C)[C@@H]1CCC(C)=C[C@@H]21 [THC, tetrahydrocannabinol]			≤ 50%	around 60%	significant decrease
